Patent publication US5770617A, “Terbenzimidazoles useful as antifungal agents” (Rutgers, The State University of New Jersey, priority 1997, dated 1998)

Tests used:
[1] = tested on: human epidermoid carcinoma KB3-1 cell line; test: MTT cytotoxicity assay, KB3-1; format: cell-based; conditions: KB 3-1, 96 h, read-out: Cytotoxicity IC50 KB3-1
Method: (§1) The cytotoxicity was determined using the as MTT-microtiter plate tetrazolinium cytotoxicity assay (MTA) following the procedures of F. Denizot et al., J. Immunol. Methods, 89, 271 (1986); J. Carmichael et al., Cancer Res, 47, 936 (1987) and T. J. Mosmann et al., Immunol. Methods, 65, 55 (1983). The human lymphoblast RPMI 8402 and its camptothecin-resistant variant cell line, CPT-K5 were provided by Dr. Toshiwo Andoh (Aichi Cancer Center Research Institute, Nagoya, Japan). See, for example, T. Andoh et al., Adv. Pharmacol., 29B, 93 (1994). The cytotoxicity assay was performed using 96-well microtiter plates. Cells were grown in suspension at 37 ° C. in 5% CO2 and maintained by regular passage in RPMI medium supplemented with 10% heat inactivated fetal bovine serum, L-glutamine (2 mM), penicillin (100 U/ml), and streptomycin (0.1 mg/ml). For determination of IC50, cells were exposed continuously with varying concentrations of drug concentrations and MTT assays were performed at the end of the fourth day.
(§2) The drug sensitive human epidermoid carcinoma KB3-1 cell line (S. Aliyama et al., Somatic Cell Mol. Genet., 11, 117 (1985)) and its vinblastine-selected multidrug-resistant variant KBV-1 cells (D. W. Shen et al., Science, 32, 643 (1986)) were provided by Dr. Michael Gottesmann (National Cancer Institute, Bethesda, Md.). […]

[2] = tested on: CPT-K5 (camptothecin-resistant variant of RPMI 8402); test: MTT cytotoxicity assay, CPT-K5; format: cell-based, human
Method: as §1

[3] = tested on: KBV-1 cells (multidrug-resistant variant, overexpress MDR1); test: MTT cytotoxicity assay, KBV-1; format: cell-based, human
Method: as §1, §2

[4] = tested on: KBV-1 cells (multidrug-resistant variant, overexpress MDR1); conditions: cited from earlier work
[5] = tested on: yeast cells expressing yeast topoisomerase I; test: Yeast cytotoxicity assay, yeast topoisomerase I; format: cell-based, S. cerevisiae
Text: The topoisomerase I-specific in vivo cytotoxicity assay was adapted from A. M. Knab et al., J. Biol. Chem., 268, 22322 (1993). In this system, various topoisomerase I genes or cDNAs cloned into the single-copy yeast plasmid vector (YCpGAL1; Knab et al., cited above) are expressed under the control of the GAL1 promoter in the JN2-134 strain of S. cerevisiae (MAT, rad52::Leu2, trp1, ade2-1, his7, ura3-52, ise1, top1-1, and leu2; M. A. Bjornsti et al., Cancer Res., 49, 6318 (1989)). The topoisomerase I gene or cDNA constructs in the vector are, respectively, the wild-type yeast topoisomerase I gene (YCpGAL-ScTOP1; need cite (1989)), a nonfunctional topoisomerase I gene where the active site tyrosine-727 is mutated to phenylalanine (YCPGAL1-Sctop1Y727; A. M. Knab et al., J. Biol. Chem., 268, 22322 (1993)), and the wild-type human topoisomerase I cDNA (YCp-GAL-hTOP1; M. A. Bjornsti et al., Cancer Res., 49, 6318 (1989)).
To qualitatively test the cytotoxicity and the topoisomerase I specificity of the drugs, yeast cells containing the specified plasmid were grown in dropout medium supplemented with uracil, 2% galactose, and the drug being tested.

[6] = tested on: CPT-K5 (camptothecin-resistant variant of RPMI 8402); conditions: CPT-K5 versus RPMI 8402; reported by A. Y. Chen et al. 1993; cited from earlier work

Compound	IC50 [1] [nM]	effect against camptothecin-resistant CPT-K5 cells, in words [2]	difference between IC50 values in KB 3-1 and KB V-1 cells [3]	fold less cytotoxic to KB V-1 cells than to KB 3-1 ([4]; background, previously reported)	difference of IC50 for KB 3-1 as compared to KB V-1 cells ([4]; reported by A. Y. Chen et al. 1994)	cytotoxicity to yeast cells expressing functional yeast topoisomerase I [5]	resistance of yeast cells expressing yeast topoisomerase I relative to yeast cells expressing human topoisomerase I [5]	relative resistance (ratio of IC50 of resistant versus drug sensitive cell line) [6]
c1ccc(-c2ccc3[nH]c(-c4ccc5[nH]c(-c6ccc7[nH]cnc7c6)nc5c4)nc3c2)cc1 [Compound 13, 5-Phenyl-2-[2'(benzimidazol-5"-yl)benzimidazol-5'-yl]benzimidazole]	580	effective	little difference					
CCOc1ccc(-c2nc3cc(-c4nc5cc(N6CCN(C)CC6)ccc5[nH]4)ccc3[nH]2)cc1 [Hoechst 33342, 2'-(4-ethoxyphenyl)-5-(4-methyl-1-piperazinyl)-2,5'-bi-1H-benzimidazole]		effective		approximately 130 fold	approximately two-orders of magnitude			
CC[C@@]1(O)C(=O)OCc2c1cc1n(c2=O)Cc2cc3ccccc3nc2-1 [camptothecin]						camptothecin-sensitive	at least ten times more resistant	2,500 fold
